Where two headings read alike, the source gives them in different places.
Assays:
[1] = biological target: T1, baculovirus-expressed ALK (Homo sapiens, UniProt Q9UM73); assay: ALK Kinase Assay (ELISA-type, time-resolved fluorescence); assay type: biochemical
T1 construct: host or cells: baculovirus expression system
Outline: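 Plates coated with phospholipase C-γ substrate (10 μg/mL in TBS); reaction started with 30 ng/ml ALK and run 15 min at 37° C. Phosphorylated substrate detected with Eu-N1-labeled PT66 antibody. IC50 from sigmoidal variable-slope fit of percent inhibition vs log concentration.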

[2] = biological target: T2, c-Met (cytoplasmic domain) (Homo sapiens, UniProt P08581); assay: c-Met Kinase Assay (same methods as for ALK, with modifications); assay type: biochemical
T2 construct: 10 ng/mL c-Met (cytoplasmic domain, Invitrogen Corporation #PV3143); purchased Invitrogen Corporation PV3143
T2 sequence (P08581 956-1390 limits assumed): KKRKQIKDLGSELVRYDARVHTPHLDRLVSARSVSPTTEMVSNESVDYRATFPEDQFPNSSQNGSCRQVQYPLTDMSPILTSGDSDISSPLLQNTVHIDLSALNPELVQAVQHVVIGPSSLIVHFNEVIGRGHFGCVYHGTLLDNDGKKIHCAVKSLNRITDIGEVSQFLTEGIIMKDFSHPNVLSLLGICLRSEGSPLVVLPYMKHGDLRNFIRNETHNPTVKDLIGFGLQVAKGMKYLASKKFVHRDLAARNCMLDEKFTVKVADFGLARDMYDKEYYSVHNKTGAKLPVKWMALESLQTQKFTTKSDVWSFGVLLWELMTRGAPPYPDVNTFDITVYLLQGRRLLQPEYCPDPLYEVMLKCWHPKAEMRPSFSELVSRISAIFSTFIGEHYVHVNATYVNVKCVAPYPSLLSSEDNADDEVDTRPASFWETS
Outline: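 Plates were coated with phospholipase C-γ substrate (10 μg/mL) in TBS, and the reaction was started with 10 ng/mL c-Met cytoplasmic domain and run 15 min at 37 °C. Phosphoproduct was detected with Eu-N1-labelled PT66 antibody. IC50 came from a variable-slope sigmoidal fit of percent inhibition vs log concentration.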

[3] = 1 μM ATP (Km level), read-out: ALK Activity (ALK Kinase Inhibition, IC50)
[4] = 1 μM ATP (Km level), read-out: cMet Activity (c-Met Kinase Inhibition, IC50)
[5] = 1 μM ATP (Km level), 30 ng/ml ALK, 37° C., 15 minutes, read-out: ALK Activity (ALK kinase inhibition, IC50 class)
[6] = 1 μM ATP (Km level), 10 ng/mL c-Met, read-out: cMet Activity (c-Met kinase inhibition, IC50 class)
[7] = ALK kinase inhibition, 1 μM ATP (Km level), read-out: ALK Activity
[8] = c-Met kinase inhibition, 1 μM ATP (Km level), read-out: cMet Activity
[9] = ALK kinase inhibition, 1 μM ATP, read-out: ALK Activity
[10] = c-Met kinase inhibition, 1 μM ATP, read-out: cMet Activity

T1 sequence (Q9UM73 19-1620): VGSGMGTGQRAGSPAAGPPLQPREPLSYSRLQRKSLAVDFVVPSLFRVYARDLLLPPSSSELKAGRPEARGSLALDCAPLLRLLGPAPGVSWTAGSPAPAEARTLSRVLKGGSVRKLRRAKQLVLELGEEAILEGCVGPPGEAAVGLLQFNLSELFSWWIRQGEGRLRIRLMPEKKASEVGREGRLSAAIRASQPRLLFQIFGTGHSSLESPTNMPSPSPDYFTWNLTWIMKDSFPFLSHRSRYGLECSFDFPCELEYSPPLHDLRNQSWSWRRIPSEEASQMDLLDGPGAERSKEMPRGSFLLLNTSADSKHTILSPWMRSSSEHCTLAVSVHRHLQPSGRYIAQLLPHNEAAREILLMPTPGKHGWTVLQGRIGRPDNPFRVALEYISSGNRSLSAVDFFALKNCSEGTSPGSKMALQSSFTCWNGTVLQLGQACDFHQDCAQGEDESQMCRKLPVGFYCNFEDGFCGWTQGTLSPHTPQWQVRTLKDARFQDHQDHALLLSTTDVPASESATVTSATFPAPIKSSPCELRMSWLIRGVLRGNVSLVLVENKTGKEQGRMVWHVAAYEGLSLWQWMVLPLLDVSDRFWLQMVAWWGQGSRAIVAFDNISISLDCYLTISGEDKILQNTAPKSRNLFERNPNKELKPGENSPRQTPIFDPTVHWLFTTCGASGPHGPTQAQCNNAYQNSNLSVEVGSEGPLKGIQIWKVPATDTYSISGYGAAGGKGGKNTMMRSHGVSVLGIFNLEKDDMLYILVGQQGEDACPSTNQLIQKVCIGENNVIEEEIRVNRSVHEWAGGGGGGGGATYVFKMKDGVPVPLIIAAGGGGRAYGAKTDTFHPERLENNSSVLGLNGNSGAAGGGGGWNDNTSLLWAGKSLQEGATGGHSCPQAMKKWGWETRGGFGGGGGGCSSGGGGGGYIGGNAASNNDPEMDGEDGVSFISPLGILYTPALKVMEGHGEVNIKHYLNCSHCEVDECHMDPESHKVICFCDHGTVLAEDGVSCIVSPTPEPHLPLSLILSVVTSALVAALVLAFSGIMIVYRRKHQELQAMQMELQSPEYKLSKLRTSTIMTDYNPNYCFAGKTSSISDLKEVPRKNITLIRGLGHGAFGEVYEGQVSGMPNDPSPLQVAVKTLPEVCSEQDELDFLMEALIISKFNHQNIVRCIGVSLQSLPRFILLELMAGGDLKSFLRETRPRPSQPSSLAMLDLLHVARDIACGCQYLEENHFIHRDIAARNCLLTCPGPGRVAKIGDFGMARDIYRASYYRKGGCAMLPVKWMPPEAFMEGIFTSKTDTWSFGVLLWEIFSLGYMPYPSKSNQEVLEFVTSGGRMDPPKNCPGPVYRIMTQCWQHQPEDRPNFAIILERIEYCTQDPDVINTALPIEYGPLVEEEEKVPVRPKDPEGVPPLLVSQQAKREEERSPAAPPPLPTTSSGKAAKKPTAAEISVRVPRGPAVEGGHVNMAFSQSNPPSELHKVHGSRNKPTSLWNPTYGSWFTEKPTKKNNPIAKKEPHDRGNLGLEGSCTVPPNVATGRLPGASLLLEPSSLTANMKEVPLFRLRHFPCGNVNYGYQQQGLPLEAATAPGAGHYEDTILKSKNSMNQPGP

## CCN1C(=O)CCC(C)(C)c2ccc(Nc3ncc(Cl)c(Nc4ccc(N5CCOCC5)cc4S(=O)(=O)N(C)C)n3)cc21 [Example 851, 2-[5-Chloro-2-(1-ethyl-5,5-dimethyl-2-oxo-2,3,4,5-tetrahydro-1H-benzo[b]azepin-8-ylamino)-pyrimidin-4-ylamino]-N,N-dimethyl-5-morpholin-4-yl-benzenesulfonamide]
[1]; [3]
  IC50: < 100 nM
[2]; [4]
  IC50: 1000 to 10000 nM

## CC(C)S(=O)(=O)c1ccccc1Nc1nc(Nc2ccc3c(c2)C(C)(C)CCC(=O)N3C)ncc1Cl [Example 1329, 7-{5-Chloro-4-[2-(propane-2-sulfonyl)-phenylamino]-pyrimidin-2-ylamino}-1,5,5-trimethyl-1,3,4,5-tetrahydro-benzo[b]azepin-2-one]
[1]; [5]
  IC50: < 100 nM
[2]; [6]
  IC50: < 100 nM

## COc1cc2c(cc1Nc1ncc(F)c(Nc3ccc(N4CCOCC4)cc3OC)n1)CCN(CC(N)=O)CC2 [Example 810, 2-{7-[5-Fluoro-4-(2-methoxy-4-morpholin-4-yl-phenylamino)-pyrimidin-2-ylamino]-8-methoxy-1,2,4,5-tetrahydro-benzo[d]azepin-3-yl}-acetamide]
[1]; [3]
  IC50: < 100 nM
[2]; [4]
  IC50: > 10000 nM

## CCN1CCc2ccc(Nc3ncc(C(F)(F)F)c(Nc4ccccc4C(=O)NC)n3)cc2CC1 [Example 195, 2-[2-(3-Ethyl-2,3,4,5-tetrahydro-1H-benzo[d]azepin-7-ylamino)-5-trifluoromethyl-pyrimidin-4-ylamino]-N-methyl-benzamide]
[1]; [7]
  IC50: < 100 nM
[2]; [8]
  IC50: < 100 nM

## COCCN1CCc2ccc(Nc3ncc(Cl)c(NCC(C)(C)NS(C)(=O)=O)n3)cc2CC1 [Example 305, N-(2-{5-Chloro-2-[3-(2-methoxy-ethyl)-2,3,4,5-tetrahydro-1H-benzo[d]azepin-7-ylamino]-pyrimidin-4-ylamino}-1,1-dimethyl-ethyl)-methanesulfonamide]
[1]; [7]
  IC50: 100 to 1000 nM
[2]; [8]
  IC50: > 10000 nM

## CCN1CC2CC(C1)c1cc(Nc3ncc(Cl)c(Nc4ccccc4C(=O)NC)n3)ccc12 (centres unmarked) [Example 156, 2-[5-Chloro-2-(10-ethyl-10-aza-tricyclo[6.3.1.0*2,7*]dodeca-2,4,6-trien-4-ylamino)-pyrimidin-4-ylamino]-N-methyl-benzamide]
[1]; [7]
  IC50: < 100 nM
[2]; [8]
  IC50: < 100 nM

## COc1cc2c(cc1Nc1ncc(Cl)c(N[C@H]3[C@@H](C(N)=O)[C@@H]4C=C[C@H]3C4)n1)CCN(CCN1CCOCC1)CC2 [Example 1529, (1S,2S,3R,4R)-3-{5-Chloro-2-[8-methoxy-3-(2-morpholin-4-yl-ethyl)-2,3,4,5-tetrahydro-1H-3-benzazepin-7-ylamino]-pyrimidin-4-ylamino}-bicyclo[2.2.1]hept-5-ene-2-carboxylic acid amide]
[1]; [9]
  IC50: < 100 nM
[2]; [10]
  IC50: > 10000 nM

## C#CCN1CCc2ccc(Nc3ncc(Cl)c(Nc4ccc(N5CCOCC5)cc4OC)n3)cc2CC1 [Example 324, 5-Chloro-N*4*-(2-methoxy-4-morpholin-4-yl-phenyl)-N*2*-(3-prop-2-ynyl-2,3,4,5-tetrahydro-1H-benzo[d]azepin-7-yl)-pyrimidine-2,4-diamine]
[1]; [7]
  IC50: < 100 nM
[2]; [8]
  IC50: 1000 to 10000 nM

## COCC(COC)N1CCc2cc(Nc3ncc(Cl)c(N[C@@H]4CCCC[C@H]4NS(C)(=O)=O)n3)c(OC)cc2CC1 [Example 816, N-((1R,2R)-2-{5-Chloro-2-[8-methoxy-3-(2-methoxy-1-methoxymethyl-ethyl)-2,3,4,5-tetrahydro-1H-benzo[d]azepin-7-ylamino]-pyrimidin-4-ylamino}-cyclohexyl)-methanesulfonamide]
[1]; [3]
  IC50: < 100 nM
[2]; [4]
  IC50: > 10000 nM

## CNC(=O)c1cc(F)ccc1Nc1nc(Nc2ccc3c(c2)-n2ccnc2CCC3)ncc1Cl [Example 1841, 2-[5-Chloro-2-(5,6-dihydro-4H-3,10b-diaza-benzo[e]azulen-9-ylamino)-pyrimidin-4-ylamino]-5-fluoro-N-methyl-benzamide]
[1]; [9]
  IC50: 1000 to 10000 nM
[2]; [10]
  IC50: 100 to 1000 nM

## COCCN1CCc2ccc(Nc3ncc(Cl)c(Nc4c(F)cccc4S(=O)(=O)C(C)C)n3)cc2CC1 [Example 1253, 5-Chloro-N(4)-[2-fluoro-6-(propane-2-sulfonyl)-phenyl]-N(2)-[3-(2-methoxy-ethyl)-2,3,4,5-tetrahydro-1H-3-benzazepin-7-yl]-pyrimidine-2,4-diamine]
[1]; [5]
  IC50: < 100 nM
[2]; [6]
  IC50: 1000 to 10000 nM

## CCN1CCc2cc(Nc3ncc(Cl)c(Nc4ccc(N5CCN(C)CC5)cc4OC)n3)c(OC)cc2CC1=O [Example 772, 7-{5-Chloro-4-[2-methoxy-4-(4-methyl-piperazin-1-yl)-phenylamino]-pyrimidin-2-ylamino}-3-ethyl-8-methoxy-1,3,4,5-tetrahydro-benzo[d]azepin-2-one]
[1]; [3]
  IC50: < 100 nM
[2]; [4]
  IC50: > 10000 nM

## COc1cc2c(cc1Nc1ncc(Cl)c(Nc3ccccc3S(=O)(=O)N(C)C)n1)N(CC(=O)N(C)C)C(=O)CN(CC(=O)N(C)C)C2 [Example 1656, 2-{8-[5-Chloro-4-(2-dimethylsulfamoyl-phenylamino)-pyrimidin-2-ylamino]-1-dimethylcarbamoylmethyl-7-methoxy-2-oxo-1,2,3,5-tetrahydro-benzo[e][1,4]diazepin-4-yl}-N,N-dimethyl-acetamide]
[1]; [9]
  IC50: 100 to 1000 nM
[2]; [10]
  IC50: > 10000 nM

## CCN1CCN(CC(=O)N(C)C)Cc2cc(OC)c(Nc3ncc(Cl)c(N[C@@H]4CCCC[C@H]4NS(C)(=O)=O)n3)cc21 [Example 1461, 2-{8-[5-Chloro-4-((1R,2R)-2-methanesulfonylamino-cyclohexylamino)-pyrimidin-2-ylamino]-1-ethyl-7-methoxy-1,2,3,5-tetrahydro-benzo[e][1,4]diazepin-4-yl}-N,N-dimethyl-acetamide]
[1]; [9]
  IC50: < 100 nM
[2]; [10]
  IC50: > 10000 nM

## CNC(=O)c1ccccc1Nc1nc(Nc2ccc3c(c2)CNC(=O)CC3)ncc1Cl [Example 1794, 2-[5-Chloro-2-(3-oxo-2,3,4,5-tetrahydro-1H-benzo[c]azepin-8-ylamino)-pyrimidin-4-ylamino]-N-methylbenzamide]
[1]; [9]
  IC50: < 100 nM
[2]; [10]
  IC50: < 100 nM

## CN(C)S(=O)(=O)c1ccccc1Nc1nc(Nc2ccc3c(c2)CCC(O)CC3)ncc1Cl (centres unmarked) [Example 1033, 2-[5-Chloro-2-(7-hydroxy-6,7,8,9-tetrahydro-5H-benzocyclohepten-2-ylamino)-pyrimidin-4-ylamino]-N,N-dimethyl-benzenesulfonamide]
[1]; [5]
  IC50: < 100 nM
[2]; [6]
  IC50: 100 to 1000 nM

## CNC(=O)c1ccccc1Nc1nc(Nc2ccc3c(c2)OCCCO3)ncc1Cl [Example 511]
[1]; [3]
  IC50: < 100 nM
[2]; [4]
  IC50: < 100 nM

## COCC(COC)N1CCc2cc(Nc3ncc(Cl)c(Nc4ccccc4S(=O)(=O)N4CCCC4)n3)c(OC)cc2CC1 [Example 844, 5-Chloro-N*2*-[8-methoxy-3-(2-methoxy-1-methoxymethyl-ethyl)-2,3,4,5-tetrahydro-1H-benzo[d]azepin-7-yl]-N*4*-[2-(pyrrolidine-1-sulfonyl)-phenyl]-pyrimidine-2,4-diamine]
[1]; [3]
  IC50: < 100 nM
[2]; [4]
  IC50: 1000 to 10000 nM

## CNC(=O)c1cccc(F)c1Nc1nc(Nc2ccc3c(c2)C(=O)NCCC3)ncc1Cl [Example 400, 2-[5-Chloro-2-(1-oxo-2,3,4,5-tetrahydro-1H-benzo[c]azepin-8-ylamino)-pyrimidin-4-ylamino]-3-fluoro-N-methyl-benzamide]
[1]; [7]
  IC50: 100 to 1000 nM
[2]; [8]
  IC50: 100 to 1000 nM
